Data: patent US10221178B2, “Purine inhibitors of human phosphatidylinositol 3-kinase delta” (MERCK SHARP & DOHME CORP., priority 2015, dated 2019)
pIC50: −log10 of the molar value.

How the values were obtained:
PI3Kdelta = PI3Kdelta (Homo sapiens (Human), UniProt O00329); assay: HTRF PI3K biochemical assay, delta isoform; details: 0.3 nM enzyme, 100 uM ATP, 5 uM PIP2, form screened: Neutral
Excerpt: (§1) HTRF PI3K Biochemical Assay to Measure Intrinsic Potency of Compound Inhibitors
(§2) The PI3-Kinase biochemical assays were developed to measure the intrinsic potency and compound dependent inhibition of the alpha, beta, delta, and gamma PI3K isoform enzymes.
(§3) This assay was developed and further optimized from a kit produced by Upstate (Millipore catalog #33-047) and has been configured for HTS (high throughput screening) and SAR screening. Briefly, this procedure exploits the exquisite specificity and high affinity binding of enzyme reaction substrate phosphatidyl(3,4,5)triphosphate (PIP3) to the GRP1 pleckstrin homology (PH) domain to generate the signal. In the absence of PIP3, an HTRF (Homogeneous Time-Resolved Fluorescence energy transfer) complex is formed consisting of europium (Eu)-labeled anti-GST, GSTtagged GRP1-PH domain, biotin-PIP3 and streptavidin conjugated APC. The native PIP3 produced by PI3-Kinase activity disrupts in a competitive manner the biotin-PIP3 from the PH domain, resulting in the loss of energy transfer (HTRF complex) and a decrease in the signal. The format of this assay is the same for all 4 isoforms of PI3K; the differences lie in the concentration of enzyme used to achieve robust assay window. The alpha, beta, and delta assays are run at 0.5, 1, and 0.3 nM enzymes and the gamma assay is run at 5 nM enzyme. The ATP concentration is 100 uM in the alpha, beta, and delta assays and 50 uM ATP in the gamma assay. All reactions are run at 5 uM PIP2.
(§4) Compounds are serially diluted (3-fold in 100% DMSO) across a 384-well polypropylene source plated from column 3 to column 12 and column 13 to column 22, to yield 10 concentration dose response for each test compound. Columns 1, 2, 23 and 24 contain either only DMSO or pharmacological known control inhibitor. Once titrations are made, 2.5 nL of the compounds on 384 well plates are reformatted and transferred by acoustic dispense in quadruplicates to a 1536 assay plate (Greiner) to assay across all four PI3K isoform enzymes.
(§5) The PI3-Kinase biochemical assay was optimized using the HTRF kit provided by Upstate (Millipore). The assay kit contains six reagents: 1) 4× Reaction Buffer; 2) native PIP2 (substrate); 3) Stop (EDTA); 4) Detection Mix A (Streptavidin-APC); 5) Detection Mix B (Eu-labeled Anti-GST plus GST-tagged PH-domain); 6) Detection Mix C. In addition, the following items were obtained or purchased; PI3Kinase (alpha 14-602, beta 14-603, gamma 14-558 and delta 14-604 from Upstate; Millipore), dithiothreitol (Sigma, D-5545), Adenosine-5′ triphosphate (InVitrogen, Cat#AS001A), native PIP3 (PI(3,4,5)P3, diC8, H^+, CELLSIGNALS, INC. Cat #907) DMSO (Sigma, 472301).
(§6) PI3Kinase Reaction Buffer is prepared by dilution the stock 1:4 with de-ionized water. DTT, PIP2 and Biotin-PIP3 were added to 1536 assay plate at a final concentration of 5 mM, […] on the day of use. Enzyme addition and compound pre-incubation are initiated by the addition of 1.25 ul of PI3K (at twice its final concentration) in the 1× reaction buffer to all wells using a BioRaptor. Plates are incubated at RT for 15 minutes. Reactions are initiated by addition of 1.25 ul of 2× substrate solution (PIP2 and ATP in 1× reaction buffer) using BioRaptor. Plates are incubated in humidified chamber at RT for one hour. Reactions are quenched by addition of 0.625 uL of stop solution to all wells using the BioRaptor. The quenched reactions are then processed to detect product formation by adding 0.625 uL of Detection Solution to all wells using the BioRaptor (Detection mix C, Detection Mix A, and Detection Mix B combined together in an 18:1:1 ratio prepared 2 hours prior to use). Following a one hour incubation in the dark, the HTRF signal is measured on the Envision plate reader set for 330 nm excitation and dual emission detection at 620 nM (Eu) and 665 nM (APC).

PI3Kalpha = PI3Kalpha (Homo sapiens (Human), UniProt P42336); assay: HTRF PI3K biochemical assay, alpha isoform (selectivity versus PI3Kalpha); details: relative ratio (PI3K-alpha IC50 value/PI3K-delta IC50 value); form screened: Neutral
Excerpt: as §1, §2, §3, §4, §5
as §6, with “[…]. […]” for “(APC).”

PI3Kdelta, sequence (O00329 whole entry, canonical isoform): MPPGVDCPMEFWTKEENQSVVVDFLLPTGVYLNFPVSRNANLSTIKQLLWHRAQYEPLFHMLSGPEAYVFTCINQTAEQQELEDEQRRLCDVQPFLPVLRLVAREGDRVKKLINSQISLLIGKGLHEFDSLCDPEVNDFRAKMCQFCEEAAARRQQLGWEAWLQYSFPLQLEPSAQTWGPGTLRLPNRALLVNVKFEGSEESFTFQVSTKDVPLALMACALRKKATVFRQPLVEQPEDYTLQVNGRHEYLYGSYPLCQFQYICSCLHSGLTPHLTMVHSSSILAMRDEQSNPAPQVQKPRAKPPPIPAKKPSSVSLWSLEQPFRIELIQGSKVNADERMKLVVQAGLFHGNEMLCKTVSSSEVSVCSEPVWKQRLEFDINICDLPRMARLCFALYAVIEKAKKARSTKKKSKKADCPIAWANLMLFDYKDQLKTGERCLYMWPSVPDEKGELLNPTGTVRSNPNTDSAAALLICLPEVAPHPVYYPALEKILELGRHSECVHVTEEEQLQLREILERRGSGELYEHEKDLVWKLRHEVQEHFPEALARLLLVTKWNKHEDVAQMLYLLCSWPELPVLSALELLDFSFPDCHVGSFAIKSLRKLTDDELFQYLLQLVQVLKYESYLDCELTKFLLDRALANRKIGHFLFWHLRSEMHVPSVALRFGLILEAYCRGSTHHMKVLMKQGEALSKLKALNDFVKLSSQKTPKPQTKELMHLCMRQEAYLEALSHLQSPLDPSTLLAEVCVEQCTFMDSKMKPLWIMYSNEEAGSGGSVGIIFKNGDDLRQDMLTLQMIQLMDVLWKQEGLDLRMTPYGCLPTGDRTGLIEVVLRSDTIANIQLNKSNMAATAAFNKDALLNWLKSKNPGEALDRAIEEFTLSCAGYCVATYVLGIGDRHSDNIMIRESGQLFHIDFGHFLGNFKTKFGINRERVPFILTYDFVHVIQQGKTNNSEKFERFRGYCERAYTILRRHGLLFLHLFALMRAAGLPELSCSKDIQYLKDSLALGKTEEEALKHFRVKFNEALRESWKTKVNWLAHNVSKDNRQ
PI3Kdelta, sequence (P27986 whole entry partner, canonical isoform): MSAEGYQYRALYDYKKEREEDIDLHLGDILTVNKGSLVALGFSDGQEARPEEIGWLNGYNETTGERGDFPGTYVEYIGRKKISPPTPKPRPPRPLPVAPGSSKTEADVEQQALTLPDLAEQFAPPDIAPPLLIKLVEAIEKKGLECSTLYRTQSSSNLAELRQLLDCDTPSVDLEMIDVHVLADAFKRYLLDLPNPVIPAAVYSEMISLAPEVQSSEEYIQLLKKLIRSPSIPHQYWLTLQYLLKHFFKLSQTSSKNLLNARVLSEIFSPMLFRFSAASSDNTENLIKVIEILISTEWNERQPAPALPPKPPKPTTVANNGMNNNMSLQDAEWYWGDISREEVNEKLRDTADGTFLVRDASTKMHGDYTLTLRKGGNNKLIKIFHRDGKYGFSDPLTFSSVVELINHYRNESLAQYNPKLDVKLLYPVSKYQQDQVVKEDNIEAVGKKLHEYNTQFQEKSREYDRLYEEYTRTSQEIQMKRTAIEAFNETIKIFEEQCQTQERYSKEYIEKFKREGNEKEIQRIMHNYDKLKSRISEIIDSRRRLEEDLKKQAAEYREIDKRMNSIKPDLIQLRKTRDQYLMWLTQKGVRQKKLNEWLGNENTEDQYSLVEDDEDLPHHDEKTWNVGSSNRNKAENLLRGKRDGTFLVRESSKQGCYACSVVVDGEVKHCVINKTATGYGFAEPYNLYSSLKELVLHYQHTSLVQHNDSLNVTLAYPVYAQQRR
PI3Kalpha, sequence (P42336 whole entry, canonical isoform): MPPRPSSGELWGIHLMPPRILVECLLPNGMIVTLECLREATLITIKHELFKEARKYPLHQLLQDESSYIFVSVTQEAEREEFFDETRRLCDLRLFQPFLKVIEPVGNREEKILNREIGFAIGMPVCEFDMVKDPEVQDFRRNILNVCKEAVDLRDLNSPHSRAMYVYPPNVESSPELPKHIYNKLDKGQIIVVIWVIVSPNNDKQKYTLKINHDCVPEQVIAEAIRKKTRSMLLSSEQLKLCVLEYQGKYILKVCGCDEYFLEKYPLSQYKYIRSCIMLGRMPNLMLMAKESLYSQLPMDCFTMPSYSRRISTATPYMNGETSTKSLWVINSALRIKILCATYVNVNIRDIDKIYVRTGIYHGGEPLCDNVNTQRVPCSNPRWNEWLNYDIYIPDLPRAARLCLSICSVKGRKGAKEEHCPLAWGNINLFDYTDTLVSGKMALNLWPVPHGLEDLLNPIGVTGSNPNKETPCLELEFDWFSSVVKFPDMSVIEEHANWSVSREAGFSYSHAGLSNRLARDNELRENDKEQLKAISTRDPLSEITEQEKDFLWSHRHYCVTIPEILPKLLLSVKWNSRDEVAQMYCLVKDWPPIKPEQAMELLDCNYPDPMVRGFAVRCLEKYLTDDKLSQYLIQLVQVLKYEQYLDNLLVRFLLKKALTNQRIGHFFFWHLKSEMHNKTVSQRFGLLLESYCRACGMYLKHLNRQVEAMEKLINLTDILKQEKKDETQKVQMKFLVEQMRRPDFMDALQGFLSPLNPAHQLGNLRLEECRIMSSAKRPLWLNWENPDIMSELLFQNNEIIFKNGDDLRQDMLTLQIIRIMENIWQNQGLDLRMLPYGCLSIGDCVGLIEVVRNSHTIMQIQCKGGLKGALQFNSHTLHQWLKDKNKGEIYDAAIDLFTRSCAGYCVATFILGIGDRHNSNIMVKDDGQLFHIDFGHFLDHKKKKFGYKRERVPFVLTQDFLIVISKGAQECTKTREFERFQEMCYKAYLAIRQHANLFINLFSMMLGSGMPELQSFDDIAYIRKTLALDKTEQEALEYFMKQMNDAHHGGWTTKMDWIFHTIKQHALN
PI3Kalpha, sequence (P27986 whole entry partner, canonical isoform): as the sequence (P27986 whole entry partner, canonical isoform) above

SMILES: CCn1ncc(-c2nc3c(N[C@H](Cc4ccccc4)C(=O)N4CCOCC4)ncnc3n2C)c1C [Compound 2-1, N-[(1R)-1-benzyl-2-morpholin-4-yl-2-oxoethyl]-8-(1-ethyl-5-methyl-1H-pyrazol-4-yl)-9-methyl-9H-purin-6-amine]
- pIC50 (PI3Kdelta): 7.82
- Selectivity versus PI3Kalpha (PI3Kalpha): >10

SMILES: CCC(Nc1ncnc2c1nc(-c1cnc(C)nc1)n2CC)C(=O)N1CC(O)(C2CC2)C1 (single isomer, unassigned) [Compound 4-1, (S or R)-3-cyclopropyl-1-(2-{[9-ethyl-8-(2-methylpyrimidin-5-yl)-9H-purin-6-yl]amino}butanoyl)azetidin-3-ol]
- pIC50 (PI3Kdelta): 7.52
- Selectivity versus PI3Kalpha (PI3Kalpha): >10

SMILES: CCn1ncc(-c2nc3c(N[C@@H](Cc4ccccc4)C(=O)N4CCOCC4)ncnc3n2C)c1C [Compound 2-2, N-[(1S)-1-benzyl-2-morpholin-4-yl-2-oxoethyl]-8-(1-ethyl-5-methyl-1H-pyrazol-4-yl)-9-methyl-9H-purin-6-amine]
- pIC50 (PI3Kdelta): 7.23
- Selectivity versus PI3Kalpha (PI3Kalpha): >10

SMILES: CC[C@H](Nc1ncnc2c1nc(C(F)F)n2CC)C(=O)N1C[C@@H](C)O[C@@H](C)C1 [Compound 2-4, 8-(difluoromethyl)-N-[(1S)-1-{[(cis)-2,6-dimethylmorpholin-4-yl]carbonyl}propyl]-9-ethyl-9H-purin-6-amine]
- pIC50 (PI3Kdelta): 7.00
- Selectivity versus PI3Kalpha (PI3Kalpha): >10

SMILES: CCn1c(-c2cnc(C)nc2)nc2c(N[C@H](CC(=O)N3C[C@@H](C)O[C@@H](C)C3)c3ccccc3)ncnc21 [Compound 2-56, N-{(1R)-3-[(cis)-2,6-dimethylmorpholin-4-yl]-3-oxo-1-phenylpropyl}-9-ethyl-8-(2-methylpyrimidin-5-yl)-9H-purin-6-amine]
- pIC50 (PI3Kdelta): 6.21
- Selectivity versus PI3Kalpha (PI3Kalpha): >10

SMILES: CC[C@H](Nc1ncnc2c1nc(-c1cnc(C)nc1)n2CC)C(=O)N1C[C@@H](C)O[C@@H](C)C1 [Compound 2-6, N-[(1S)-1-{[(cis)-2,6-dimethylmorpholin-4-yl]carbonyl}propyl]-9-ethyl-8-(2-methylpyrimidin-5-yl)-9H-purin-6-amine]
- pIC50 (PI3Kdelta): 8.21
- Selectivity versus PI3Kalpha (PI3Kalpha): >10

SMILES: CC[C@H](Nc1ncnc2c1nc(-c1cnc(C)nc1)n2CC)C(=O)N1CCOCC12CCC2 [Compound 2-27, 9-ethyl-8-(2-methylpyrimidin-5-yl)-N-[(1S)-1-(8-oxa-5-azaspiro[3.5]non-5-ylcarbonyl)propyl]-9H-purin-6-amine]
- pIC50 (PI3Kdelta): 7.96
- Selectivity versus PI3Kalpha (PI3Kalpha): >10

SMILES: CCn1c(-c2cnc(C)nc2)nc2c(N[C@@H](C)C(=O)N3C[C@@H](C)O[C@@H](C)C3)ncnc21 [Compound 2-39, N-{(1S)-2-[(cis)-2,6-dimethylmorpholin-4-yl]-1-methyl-2-oxoethyl}-9-ethyl-8-(2-methylpyrimidin-5-yl)-9H-purin-6-amine]
- pIC50 (PI3Kdelta): 7.92
- Selectivity versus PI3Kalpha (PI3Kalpha): >10

SMILES: CC[C@H](Nc1ncnc2c1nc(-c1cnc(C)nc1)n2CC)C(=O)N1CCCC(OC)CC1 (mixture of isomers) [Compound 2-9, 9-ethyl-N-{(1S)-1-[(4-methoxyazepan-1-yl)carbonyl]propyl}-8-((R and S)-2-methylpyrimidin-5-yl)-9H-purin-6-amine]
- pIC50 (PI3Kdelta): 7.64
- Selectivity versus PI3Kalpha (PI3Kalpha): >10

SMILES: CC[C@H](Nc1ccnc2c1nc(-c1cnc(C)nc1)n2CC)C(=O)N1C[C@@H](C)O[C@@H](C)C1 [Compound 3-1, N-[(1S)-1-{[(cis)-2,6-dimethylmorpholin-4-yl]carbonyl}propyl]-3-ethyl-2-(2-methylpyrimidin-5-yl)-3H-imidazo[4,5-b]pyridin-7-amine]
- pIC50 (PI3Kdelta): 7.77
- Selectivity versus PI3Kalpha (PI3Kalpha): >10

SMILES: CC[C@H](Nc1ncnc2c1nc(-c1cnc(C)nc1)n2CC)C(=O)N1CCC(C)C1 (mixture of isomers) [Compound 2-18, 9-ethyl-8-(2-methylpyrimidin-5-yl)-N-{(1S)-1-[((S and R)-3-methylpyrrolidin-1-yl)carbonyl]propyl}-9H-purin-6-amine]
- pIC50 (PI3Kdelta): 7.51
- Selectivity versus PI3Kalpha (PI3Kalpha): >10

SMILES: CC[C@H](Nc1ncnc2c1nc(-c1cnc(C)nc1)n2CC)C(=O)N1CCC(C#N)CC1 [Compound 2-13, 1-[(2S)-2-{[9-ethyl-8-(2-methylpyrimidin-5-yl)-9H-purin-6-yl]amino}butanoyl]piperidine-4-carbonitrile]
- pIC50 (PI3Kdelta): 7.59
- Selectivity versus PI3Kalpha (PI3Kalpha): >10

SMILES: CCn1c(-c2cnc(C)nc2)nc2c(NCC3(C(=O)N4CCCC4)CC3)ncnc21 [Compound 2-61, 9-ethyl-8-(2-methylpyrimidin-5-yl)-N-{[1-(pyrrolidin-1-ylcarbonyl)cyclopropyl]methyl}-9H-purin-6-amine]
- pIC50 (PI3Kdelta): 7.03
- Selectivity versus PI3Kalpha (PI3Kalpha): >10

SMILES: CC[C@H](Nc1ncnc2c1nc(-c1cnc(C)nc1)n2CC)C(=O)N1CCCC(F)(F)C1 [Compound 2-12, N-{(1S)-1-[(3,3-difluoropiperidin-1-yl)carbonyl]propyl}-9-ethyl-8-(2-methylpyrimidin-5-yl)-9H-purin-6-amine]
- pIC50 (PI3Kdelta): 7.96
- Selectivity versus PI3Kalpha (PI3Kalpha): >10

SMILES: CCn1c(-c2cnc(C)nc2)nc2c(N[C@H](C(=O)N3C[C@@H](C)O[C@@H](C)C3)c3ccccc3)ncnc21 [Compound 2-43, N-{(1S)-2-[(cis)-2,6-dimethylmorpholin-4-yl]-2-oxo-1-phenylethyl}-9-ethyl-8-(2-methylpyrimidin-5-yl)-9H-purin-6-amine]
- pIC50 (PI3Kdelta): 7.06
- Selectivity versus PI3Kalpha (PI3Kalpha): >10

SMILES: CC[C@H](Nc1ncnc2c1nc(-c1cnc(C)nc1)n2CC)C(=O)N1CC(=O)N(C)C(C)C1 (single isomer, unassigned) [Compound 4-5, (S or R)-4-[(2S)-2-{[9-ethyl-8-(2-methylpyrimidin-5-yl)-9H-purin-6-yl]amino}butanoyl]-1,6-dimethylpiperazin-2-one]
- pIC50 (PI3Kdelta): 8.21
- Selectivity versus PI3Kalpha (PI3Kalpha): >10

SMILES: CCn1c(-c2cnc(C)nc2)nc2c(N[C@H](C(=O)N3C[C@@H](C)O[C@@H](C)C3)C3CC3)ncnc21 [Compound 2-40, N-{(1S)-1-cyclopropyl-2-[(cis)-2,6-dimethylmorpholin-4-yl]-2-oxoethyl}-9-ethyl-8-(2-methylpyrimidin-5-yl)-9H-purin-6-amine]
- pIC50 (PI3Kdelta): 8.39
- Selectivity versus PI3Kalpha (PI3Kalpha): >10

SMILES: CC[C@H](Nc1ncnc2c1nc(-c1cnc(C)nc1)n2CC)C(=O)N1CCOCC1CO (mixture of isomers) [Compound 2-37, {4-[(2S)-2-{[9-ethyl-8-(2-methylpyrimidin-5-yl)-9H-purin-6-yl]amino}butanoyl]-(R and S)-morpholin-3-yl}methanol]
- pIC50 (PI3Kdelta): 7.19
- Selectivity versus PI3Kalpha (PI3Kalpha): >10
